According to PubChem BioAssay AID1996:
Converted amounts (≈) assume the structure as drawn.

Conditions: buffer; pH 7.4; 200.0 µM

SMILES	solubility kinetic
CC1(C)CC(=O)C=C(Nc2ccc(C(=O)O)c(O)c2)C1	> 41.3 µg/mL
Cc1nc2sc(C(N)=O)c(N)c2c2c1CCCC2	9.3 µg/mL (≈ 35.6 µM)
Cl.Clc1cccc(N2CCNCC2)c1	> 35 µg/mL
CCN1CCN(c2ccc(NC(=O)COc3ccc(Cl)cc3C)cc2)CC1	5.1 µg/mL (≈ 13.1 µM)
CC(C)[N+](C)(C)CC#CC(O)(c1ccccc1)c1ccccc1.[Br-]	51 µg/mL
OCCOCCN1CCN(C(=S)Nc2ccccc2)CC1	> 46.4 µg/mL
CCCCN(CCCC)CCCOC(=O)c1ccc(N)cc1	> 46 µg/mL
O=C(NCc1csc(-c2cccs2)n1)Nc1cccc(Cl)c1	0.3 µg/mL (≈ 0.857 µM)
[O-][n+]1ccccc1/C=C/c1ccccc1	> 29.6 µg/mL
FC(F)(F)Oc1ccc(-c2cn3cccnc3n2)cc1	8.5 µg/mL (≈ 30.4 µM)
CN(C)C(=O)Oc1noc2cc(Cl)ccc12	27.9 µg/mL (≈ 116 µM)
CCc1ccc2c(CN3CCOCC3)cc(=O)oc2c1	> 41 µg/mL
Cc1ccc(N=C2C(=O)Nc3ccccc32)cc1C	24 µg/mL (≈ 95.9 µM)
Cc1cc(C)cc(C(=O)OCC(=O)N2CCCCCC2)c1	> 43.4 µg/mL
Brc1cc2c(cc1-c1nc3ccccc3s1)OCO2	< 0.7 µg/mL
O=C(NCCS(=O)(=O)N1CCCCC1)c1ccccc1	> 44.5 µg/mL
C=CC#CC1(O)CC(C)N(C)CC1C (stereo not drawn)	> 29 µg/mL
Cc1cccc(Nc2ccc(C(=O)O)cc2[N+](=O)[O-])c1C	> 42.9 µg/mL
Cn1c(=S)oc2ccccc21	14.9 µg/mL (≈ 90.2 µM)
O=C(COC(=O)c1ccc(Cl)cc1[N+](=O)[O-])NCc1ccco1	> 50.8 µg/mL
O=C(c1ccc(F)cc1)N1CCN(c2ccccn2)CC1	> 42.8 µg/mL
Cc1ccccc1CN(C)CCc1ccccn1.O=C(O)C(=O)O	25.6 µg/mL

SMILES	solubility kinetic
CCCc1cc(=O)[nH]c(SCC(=O)N2CCCC2=O)n1	> 44.3 µg/mL
COc1ccc(S(=O)(=O)NC2CCCC2)cc1NC(C)=O	> 46.9 µg/mL
COc1ccc(NC(=O)c2ccccc2NC(=O)c2ccco2)cc1	< 0.4 µg/mL
COc1cccc(CNc2cc(C)ccn2)c1O	> 36.6 µg/mL
Cc1ccc(NC(=O)N2CCN(c3ncccc3C(F)(F)F)CC2)cc1	1.5 µg/mL (≈ 4.12 µM)
NCCCS(=O)(=O)O	< 0.3 µg/mL
O=C(Nc1ccccc1)/C(=C/c1ccccc1)NC(=O)c1ccco1	1.2 µg/mL (≈ 3.61 µM)
CCC(C)c1ccc(S(=O)(=O)N2CCN3CCCC3C2)cc1 (stereo not drawn)	34.1 µg/mL (≈ 106 µM)
NS(=O)(=O)c1cnccc1NCCc1ccccc1	40.3 µg/mL (≈ 145 µM)
CN1CCCN(C(=O)CNC(=O)c2ccccc2Br)CC1	> 53.1 µg/mL
CCN(c1ccccc1)S(=O)(=O)c1ccc(Cl)nc1	32 µg/mL (≈ 108 µM)
O=C(O)c1ccccc1-c1ccccc1C(=O)Nc1cccc(Br)c1	53.6 µg/mL (≈ 135 µM)
CC(C)Nc1nc2cccnc2s1	> 29 µg/mL
CC1CCN(C(=O)CSCC(=O)O)CC1	> 34.7 µg/mL
Cl.N=c1ccn(Cc2c(Cl)cccc2Cl)cc1	> 43.4 µg/mL
CC(C)C1Nc2ccc(C(=O)O)cc2C2C=CCC21 (stereo not drawn)	> 38.6 µg/mL
Cc1ccccc1NC(=O)CC1SC(=Nc2ccc(O)cc2)NC1=O (stereo not drawn)	2 µg/mL (≈ 5.63 µM)
C=CCN1C(=O)/C(=C2/Sc3ccccc3N2CC)SC1=S	< 0.4 µg/mL
Cc1[nH]c2ccccc2c(=O)c1C(=O)/C=C/c1ccccc1	35.8 µg/mL (≈ 124 µM)
O=C1CCCCCCCN1Cc1ccccc1	> 34.7 µg/mL
COc1ccc2cc(Br)ccc2c1CC(=O)N(C)C	21.1 µg/mL (≈ 65.5 µM)
Cc1c(C(=O)OCC(=O)Nc2ccc(C(=O)N(C)C)cc2)oc2ccccc12	6.6 µg/mL (≈ 17.4 µM)

SMILES	solubility kinetic
Cc1ccc(NC(=O)c2cc3cc(OC(F)(F)F)ccc3[nH]2)cc1	< 0.4 µg/mL
CN1C(=O)c2ccc(C(=O)NCc3ccccn3)cc2C1=O	> 44.3 µg/mL
O=C(CNC(=O)c1ccco1)Nc1ccncc1	36.4 µg/mL (≈ 148 µM)
Nc1cc(=O)[nH]c(SCC(=O)NCCC2=CCCCC2)n1	> 46.3 µg/mL
COc1cccc(C(=O)O/N=C(\N)c2ccccn2)c1OC	> 45.2 µg/mL
COCCNC(=S)Nc1ccc([N+](=O)[O-])cc1C	> 40.4 µg/mL
CN(C)/N=C/c1ccc(N2CCOCC2)cc1	> 35 µg/mL
Cc1onc(-c2ccccc2)c1C(=O)NCc1cccc(Cl)c1	1.1 µg/mL (≈ 3.37 µM)
COc1ccc(Nc2nccc(-c3cccc(N)c3)n2)cc1	22.5 µg/mL (≈ 77 µM)
O=S(=O)([N-]c1nc2ccccc2nc1-[n+]1ccccc1)c1ccc(F)cc1	50.3 µg/mL (≈ 132 µM)
Cc1cc(C(=O)NCc2ccccc2Cl)c2ccccc2n1	4.1 µg/mL (≈ 13.2 µM)
CCCN1CCN(CCNC(=O)Nc2ccccc2Cl)CC1	> 48.7 µg/mL
Oc1c(Cl)cc(Cl)cc1C=Nc1ccc(N2CCOCC2)cc1	8.1 µg/mL (≈ 23.1 µM)
COC(=O)c1c(C)nc(C)c(C(=O)OC)c1-c1cccs1	> 45.8 µg/mL
CCOC(=O)C1CCN(c2ncnc3cc(OC)c(OC)cc23)CC1	51.3 µg/mL (≈ 149 µM)
CCOCCOC(=O)c1[nH]c2c(c1C)C(=O)CC(c1ccccc1)C2 (stereo not drawn)	2.3 µg/mL (≈ 6.74 µM)
CC(=O)N/C(=C\c1ccccc1)C(=O)OCC(=O)Nc1ccc(C)c(S(=O)(=O)N(C)C)c1	56.9 µg/mL (≈ 124 µM)
O=C(OCC(=O)N(CCc1ccccc1)Cc1ccccc1)c1cccc(O)c1	2.6 µg/mL (≈ 6.68 µM)
O=C(CCNC(=O)c1ccco1)Nc1nc(-c2ccccc2)cs1	8.5 µg/mL (≈ 24.9 µM)
COc1ccc(C(=O)NC2CCN(C(=O)Nc3ccc(F)cc3)CC2)cc1	0.9 µg/mL (≈ 2.42 µM)
Nc1nc(Nc2cccc(F)c2)nc(NCCO)c1[N+](=O)[O-]	12.8 µg/mL (≈ 41.5 µM)
Cc1ccccc1NC(=O)CN1CCN(Cc2ccccc2)CC1	44.3 µg/mL (≈ 137 µM)

SMILES	solubility kinetic
O=C(NCC(O)c1ccc2ccccc2c1)c1c(F)cccc1F (stereo not drawn)	41.9 µg/mL (≈ 128 µM)
Cc1c(-c2ccccc2)cnc2c(C)cccc12	< 0.5 µg/mL
Cc1ccc(NC(=O)CSCC(=O)O)cc1	> 35.9 µg/mL
CN(C(=O)c1ccccc1)C1c2c(ccc3ccccc23)OCC1CO (stereo not drawn)	< 0.7 µg/mL
CCCC(=O)NC(c1ccccc1)c1c(O)ccc2ccccc12 (stereo not drawn)	< 0.7 µg/mL
CC(C)Oc1ccc(/C=C/C(=O)NCC2COc3ccccc3O2)cc1 (stereo not drawn)	2.8 µg/mL (≈ 7.92 µM)
O=C(COc1ccc2ccccc2c1)Nc1ccccc1C(=O)O	> 48.2 µg/mL
CCOC(=O)c1ccc(NC(=O)Nc2ncccc2C)cc1	0.6 µg/mL (≈ 2 µM)
O=C(N/C(=C/c1cccs1)C(=O)N1CCCC1)c1ccccc1	46.5 µg/mL (≈ 142 µM)
O=C(NC1CCCc2ccccc21)c1cc(Cl)ccn1 (stereo not drawn)	13.2 µg/mL (≈ 46 µM)
COc1ccc(NC(=O)CN2C(=O)C(C)Oc3ccc(C)cc32)cc1 (stereo not drawn)	9.6 µg/mL (≈ 28.2 µM)
COc1ccc(NC(=O)C2CCCN(c3ncccn3)C2)cc1 (stereo not drawn)	14.5 µg/mL (≈ 46.4 µM)
CCCc1cc(=O)[nH]c(SCC(=O)c2c(N)n(C3CC3)c(=O)[nH]c2=O)n1	30.7 µg/mL (≈ 81.3 µM)
Cc1cc(NC(=O)COC(=O)c2ccccc2[N+](=O)[O-])no1	21.3 µg/mL (≈ 69.8 µM)
O=CN1CCN(C(=O)c2cccc([N+](=O)[O-])c2)CC1	> 39.5 µg/mL
COc1cccc(C(=O)C2CN(C)CC2c2ccc(Cl)cc2)c1 (stereo not drawn)	> 49.5 µg/mL
Cc1ccc(C)c(NC(=O)N2CCc3ccccc3C2)c1	18.9 µg/mL (≈ 67.4 µM)
CCOC(=O)N1CCN(C(=O)c2cc3cc(Cl)ccc3[nH]2)CC1	7 µg/mL (≈ 20.8 µM)
Cc1ccc(C(C)NC(=O)Cc2cccs2)c(C)c1 (stereo not drawn)	34.4 µg/mL (≈ 126 µM)
CC(C)[C@H](NC(=O)c1ccccc1F)C(=O)NC1CCCCCCC1	7.5 µg/mL (≈ 21.5 µM)
Cc1ccc(Nc2nnc(C)c3ccccc23)c(C)c1	> 39.5 µg/mL
COc1cc2ncnc(NCc3ccc(F)cc3)c2cc1OC	> 47 µg/mL
